Measurements as given in patent US8283473B2, “Platinum complex compound and utilization of the same” (Yakult Honsha Co., Ltd, priority 2008, dated 2012).

What follows are compounds tested on H460 non-small cell lung cancer cells (assay: In vitro cytotoxicity (inhibitory activity on cancer cell proliferation), MTT formazan absorbance assay). Settings: Table 1; 24 hours incubation at 37° C., then 4 hours with tetrazolium dye; absorbance at 550 nm; read-out: IC50 value of platinum complex compounds for H460 non-small cell lung cancer cells.
Type: cell-based
Method: <Investigation of the In Vitro Cytotoxicity (Inhibitory Activity on Cancer Cell Proliferation) for H460 Non-Small Cell Lung Cancer Cells>
On the day prior to the day of agent addition, H460 non-small cell lung cancer cells were plated onto 24-well flatbottom microplates at 12,000 to 20,000 cells/well. An aqueous solution was prepared for each sample (refer to the sample numbers in Table 1) by dissolving the sample in Q-H2O water to a concentration of 100 μM. These aqueous solutions were diluted to provide solutions with various concentrations, and 1 mL of the particular dilution was introduced into each well. After incubation of the microplate for 24 hours at 37° C., […] a 2,5-diphenyl-3-(4,5-dimethylthiazol-2-yl)tetrazolium bromide (MIT) solution (5 mg/mL) was added to each well and incubation was continued for an additional 4 hours at 37° C. 200 μL dimethyl sulfoxide (DMSO) was added to each well in order to dissolve the formazan produced and precipitated as a result of reduction of the MIT. The absorbance at 550 nm of each well was measured using a microplate reader.
The absorbance of each well was measured three times and each experiment was repeated at least three times. The IC50 value was calculated as the concentration that provided a 50% formazan production with reference to the control (no agent addition).
In the case of N.N.[Cl][Pt][Cl] [sample 3, cis-diamminedichloridoplatinum(II)], the IC50 is reported as 23 µM.

Same assay, conditions: Table 2; same procedure, 24 hours incubation at 37° C.; absorbance at 550 nm; read-out: IC50 value of platinum complex compounds for H460 non-small cell lung cancer cells
Work on “[{cis-Pt(NH3)2}2(μ-OH)(μ-tetrazolato-N1,N2)](ClO4)2 [sample 4]” yielded an IC50 of 21 µM.
With “[{cis-Pt(NH3)2}2(μ-OH)(μ-tetrazolato-N2,N3)](ClO4)2 [sample 5]” the IC50 was 8.3 µM.
“[{cis-Pt(NH3)2}2(μ-OH)(μ-5-methyltetrazolato-N2,N3)](NO3)2 [sample 6]” gave an IC50 of 20 µM.
For N.N.[Cl][Pt][Cl] [sample 3, cis-diamminedichloridoplatinum(II)], the IC50 was 23 µM.
With “[{cis-Pt(NH3)2}2(μ-OH)(μ-tetrazolato-5-ethylacetate-N2,N3)](NO3)2 [sample 7]” the IC50 was 22 µM.
Work on O=[N+]([O-])O.O=[N+]([O-])[O-].[NH2][Pt]1([NH2])[O][Pt]([NH2])([NH2])[n+]2ncc[n]21 [sample 9, [{cis-Pt(NH3)2}2(μ-OH)(μ-1,2,3-triazolato-N1,N2)](NO3)2] yielded an IC50 of 62 µM.
For “[{cis-Pt(NH3)2}2(μ-OH)(μ-pyrazolato)](NO3)2 [sample 8]”, the IC50 was > 100 µM.
